Data reported in ChEMBL document CHEMBL1914398, “Synthesis and evaluation of novel N-fluoropyridyl derivatives of tropane as potential PET imaging agents for the dopamine transporter” (Bioorg Med Chem Lett, 2011).

How the values were obtained:
[1] = Selectivity ratio of Ki for SERT to Ki for DAT
[2] = Selectivity ratio of Ki for NET to Ki for DAT
[3] = biological target: Sodium-dependent noradrenaline transporter (Homo sapiens, UniProt P23975); experiment: Displacement of [125I]-INXT from NET transfected in pig LLC-PK1 cells by radioligand competition binding assay; assay type: cell-based
[4] = biological target: Sodium-dependent serotonin transporter (Homo sapiens, UniProt P31645); experiment: Displacement of [125I]-IDAM from SERT transfected in pig LLC-PK1 cells by radioligand competition binding assay; assay type: cell-based
[5] = biological target: Sodium-dependent dopamine transporter (Homo sapiens, UniProt Q01959); experiment: Displacement of [125I]-IPT from DAT transfected in pig LLC-PK1 cells by radioligand competition binding assay; assay type: cell-based
Chain of Sodium-dependent dopamine transporter (Q01959 whole entry): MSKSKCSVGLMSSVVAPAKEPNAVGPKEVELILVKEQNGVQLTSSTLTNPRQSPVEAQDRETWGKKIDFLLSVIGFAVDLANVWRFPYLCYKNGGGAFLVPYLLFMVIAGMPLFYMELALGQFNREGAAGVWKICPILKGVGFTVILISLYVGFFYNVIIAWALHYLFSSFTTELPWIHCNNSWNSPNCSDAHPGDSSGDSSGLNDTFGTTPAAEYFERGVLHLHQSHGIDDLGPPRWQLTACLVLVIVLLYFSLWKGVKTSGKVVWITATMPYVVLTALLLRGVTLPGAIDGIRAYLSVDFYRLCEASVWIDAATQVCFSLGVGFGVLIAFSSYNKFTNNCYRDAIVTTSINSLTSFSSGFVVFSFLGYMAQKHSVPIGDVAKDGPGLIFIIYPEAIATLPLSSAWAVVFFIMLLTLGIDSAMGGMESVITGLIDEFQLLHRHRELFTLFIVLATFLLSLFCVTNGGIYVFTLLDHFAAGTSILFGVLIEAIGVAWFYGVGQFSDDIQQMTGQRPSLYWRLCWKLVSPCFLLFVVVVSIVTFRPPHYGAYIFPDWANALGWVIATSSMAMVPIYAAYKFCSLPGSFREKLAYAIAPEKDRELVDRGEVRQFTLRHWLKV

Chain of Sodium-dependent noradrenaline transporter (P23975 whole entry): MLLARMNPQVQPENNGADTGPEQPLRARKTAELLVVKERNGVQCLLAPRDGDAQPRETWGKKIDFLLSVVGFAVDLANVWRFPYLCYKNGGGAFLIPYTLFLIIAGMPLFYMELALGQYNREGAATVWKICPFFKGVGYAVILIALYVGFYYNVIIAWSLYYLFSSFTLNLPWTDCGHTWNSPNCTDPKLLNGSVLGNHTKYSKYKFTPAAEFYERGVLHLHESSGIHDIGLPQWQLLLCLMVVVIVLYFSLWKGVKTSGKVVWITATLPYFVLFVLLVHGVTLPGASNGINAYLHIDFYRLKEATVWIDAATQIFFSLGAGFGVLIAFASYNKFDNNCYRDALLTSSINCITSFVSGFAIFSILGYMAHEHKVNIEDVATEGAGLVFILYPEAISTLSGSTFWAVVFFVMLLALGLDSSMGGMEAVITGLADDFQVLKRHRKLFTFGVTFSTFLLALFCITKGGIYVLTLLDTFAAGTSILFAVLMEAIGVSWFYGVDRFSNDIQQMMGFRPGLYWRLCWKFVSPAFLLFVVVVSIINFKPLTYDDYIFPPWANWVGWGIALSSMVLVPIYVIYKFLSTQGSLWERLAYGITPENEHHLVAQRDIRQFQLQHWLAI
Chain of Sodium-dependent serotonin transporter (P31645 whole entry): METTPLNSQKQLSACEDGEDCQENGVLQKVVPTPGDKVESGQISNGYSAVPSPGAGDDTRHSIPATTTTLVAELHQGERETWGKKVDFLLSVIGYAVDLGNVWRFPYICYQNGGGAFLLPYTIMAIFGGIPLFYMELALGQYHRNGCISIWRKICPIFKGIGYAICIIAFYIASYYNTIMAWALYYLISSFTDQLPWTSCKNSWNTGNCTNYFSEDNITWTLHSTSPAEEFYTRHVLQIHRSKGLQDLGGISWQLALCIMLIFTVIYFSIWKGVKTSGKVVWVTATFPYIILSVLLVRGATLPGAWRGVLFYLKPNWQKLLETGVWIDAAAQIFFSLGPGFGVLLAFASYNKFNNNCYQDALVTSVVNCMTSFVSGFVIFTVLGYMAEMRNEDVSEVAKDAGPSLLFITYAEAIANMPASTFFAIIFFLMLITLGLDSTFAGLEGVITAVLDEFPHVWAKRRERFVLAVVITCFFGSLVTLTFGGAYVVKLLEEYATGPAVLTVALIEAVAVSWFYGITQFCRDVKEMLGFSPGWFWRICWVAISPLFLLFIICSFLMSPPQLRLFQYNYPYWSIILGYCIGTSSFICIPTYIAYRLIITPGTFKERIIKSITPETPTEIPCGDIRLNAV

| Structure (SMILES) | Ratio Ki [1] | Ratio Ki [2] | Ki [3] [nM] | Ki [4] [nM] | Ki [5] [nM] |
| --- | --- | --- | --- | --- | --- |
| CN1C2CCC1[C@@H](CNc1ccc(Br)nc1)[C@@H](c1ccc(Cl)cc1)C2 (stereo not given in full) | 0.6 | 2.7 | 49.1 | 10.5 | 17.9 |
| CN1C2CCC1[C@@H](CNc1cccc(F)n1)[C@@H](c1ccc(Cl)cc1)C2 (stereo not given in full) | 5 | 16 | 66.2 | 20.6 | 4.1 |
